By AC50 is commonly meant the concentration giving half of the maximal activity seen.

For 43 compounds, activity change, negative = inhibition and AC50 results are on record in PubChem BioAssay AID623904 (Broad Institute, 2012).

“And” between values parts separate entries of the source, which are not always exact repeats. Equal values may be shown once. The source made the active and inactive calls.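 Rule for the calls: active = growth inhibition with an AC50 at or below twice the top valid tested dose; inconclusive = flat curve at 30 to 70% inhibition, or poor fit; inactive = the rest, including growth increase.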

A short description of assay [1]: antifungal activity against fermenting C. glabrata – glucose medium, OD600, powder samples, set 2, dose response (AID 623904). As to conditions: Candida glabrata growth, glucose medium, OD600, 48 h; at 6 µM (top of the series).
For assay [2], the system named is Candida glabrata growth, glucose medium, OD600, 48 h. The description is as above.

Regarding `CCOC(=O)N1C(=O)C2(CCCCC2)N(c2ccc(-c3ccccc3)cc2)C1=S`, in assay [1], the activity change, negative = inhibition was -30.1% (inactive).
Still for that read-out and setting: the same measure for `CCOC(=O)N1C(=O)N(c2ccc(C)cc2)C2(CCCCC2)C1=O`: -17.3% (inactive); for `CCCCN1C(=O)N(c2ccc(C)cc2)C2(CCCCC2)C1=O`: -27.1% (inactive).
As for `CCCC(=O)N1C(=O)C2(CCCCC2)N(c2ccc(C)cc2)C1=S`, the half-maximal activity concentration (AC50) in assay [2] is 1.48 µM.
Still for that read-out and setting: then `Cc1ccc(N2C(=O)C3(CCCCC3)NC2=S)cc1`, with > 12 µM (inactive); and `CCOC(=O)N1C(=O)C2(CCOCC2)N(c2ccc(C)cc2)C1=S`, with > 12 µM (inactive); and `COC(=O)N1C(=O)C2(CCCCC2)N(c2ccc(C)cc2)C1=S`, with 5.93 µM.
Regarding `Cc1ccc(N2C(=S)N(C(=O)Oc3ccccc3)C(=O)C23CCCCC3)cc1`, the activity change, negative = inhibition in assay [1] was 2.19% (inactive).
For `CCOC(=O)N1C(=S)N(c2ccc(C)cc2)C2(CCCCC2)C1=NCc1ccccc1`, the AC50 in assay [2] is > 12 µM (inactive).
For the compound `CCCCN1C(=O)N(c2ccc(C)cc2)C2(CCCCC2)C1=S`, the activity change, negative = inhibition in assay [1] was -6.75% (inactive).
Still for that read-out and setting: then `CCOC(=O)N1C(=O)C2(CCCCC2)N(C(C)C)C1=S`, with 10.8% (inactive); and `O=C1NC(=S)NC12CCCCC2`, with -24.5% (inactive).
On to `Cc1ccc(N2C(=S)N(S(C)(=O)=O)C(=O)C23CCCCC3)cc1`, for which the AC50 in assay [2] is > 12 µM (inactive).
On the same count and under the same terms, then `CCOC(=O)N1C(=O)C2(CCCCC2)N(c2ccc(C)cc2)C1=S`, with 1.85 µM and 2.09 µM; and `Cc1ccc(N2C(=O)C(=O)NC2=S)cc1`, with > 12 µM (inactive).
Regarding `Cc1ccc(N2CC(=O)NC2=S)cc1`, the activity change, negative = inhibition in assay [1] is 2.6% (inactive).
For `Cc1ccc(N2C(=S)NC(=O)C2(C)C)cc1`, in assay [1], the activity change, negative = inhibition was 46.6% (inactive).
`CCOC(=O)N1C(=O)C2(CCCCC2)N(c2ccccc2)C1=S`: in assay [2], the AC50 is 2.04 µM.
On the same count and under the same terms, the same measure for `CCOC(=O)N1C(=O)C2(CCCC2)N(c2ccc(C)cc2)C1=S`: > 12 µM (inactive).
With `CCOC(=O)N1C(=O)C2(CCCCC2)N(c2ccc(C(C)(C)C)cc2)C1=S`, the activity change, negative = inhibition in assay [1] is -18.2% (inactive).
Still for that read-out and setting: the same measure for `Cc1ccc(N2C(=S)NC(=O)C23CCCCC3)cc1`: -5.97% (inactive); for `O=C1NC(=S)N(c2ccc(F)cc2)C12CCCCC2`: 11% (inactive); for `Cc1ccc(N2C(=S)N(C)C(=O)C23CCCCC3)cc1`: 2.67% (inactive) and 7.65% (inactive).
As for `CC1/C=C/C=C\C=C\C=C\C=C\C=C\C=C\C(O[C@H]2OC(C)C(O)C(N)C2O)CC2OC(O)(CC(O)CC(O)C(O)CCC(O)CC(O)CC(=O)OC(C)C(C)C1O)CC(O)C2C(=O)O` (stereo partly drawn), in assay [2], the AC50 is 0.206 µM.
Still for that read-out and setting: the same measure for `CCOC(=O)N1C(=S)N(c2ccc(C)cc2)C(=O)C12CCCCC2`: > 12 µM (inactive).
`CC(C)N1C(=S)NC(=O)C12CCCCC2`: the activity change, negative = inhibition in assay [1] was -10.3% (inactive).
For the compound `Cc1ccc(N2C(=S)NC(=O)C23CCOCC3)cc1`, the activity change, negative = inhibition in assay [1] was -7.64% (inactive).
With `Cc1ccc(N2C(=O)N(C)C(=O)C23CCCCC3)cc1`, in assay [2], the AC50 was > 12 µM (inactive).
On the same count and under the same terms, the same measure for `CCOC(=O)N1C(=O)C2(CCCCC2)N(c2ccc(C(F)(F)F)cc2)C1=S`: 4.15 µM.
Take `O=C1NC(=S)N(c2ccccc2)C12CCCCC2`: the activity change, negative = inhibition in assay [1] was 5.48% (inactive).
The same measure, in the same setting: the same measure for `Cc1ccc(N2C(=S)NC(=O)C23CCC3)cc1`: 9.11% (inactive); for `CCCCN1C(=O)C2(CCCCC2)N(c2ccc(C)cc2)C1=S`: 5.19% (inactive).
As to `Cc1ccc(N2CC(=O)NC2=O)cc1`, in assay [1], the activity change, negative = inhibition is 9.85% (inactive).
`CCOC(=O)N1C(=O)C2(CCCCC2)N(c2ccc(F)cc2)C1=S`: the AC50 in assay [2] is 2.34 µM.
Same read-out and setting: then `CCOC(=O)N1C(=S)NC(=O)C12CCCCC2`, with > 12 µM (inactive).
With `CCOC(=O)N1C(=O)C2(CCC2)N(c2ccc(C)cc2)C1=S`, the AC50 in assay [2] is > 12 µM (inactive).
With `CCOC(=O)N1C(=O)C2(CCCCC2)N(c2ccc(C#N)cc2)C1=S`, the concentration at half-maximal activity (AC50) in assay [2] was 3.29 µM.
Take `CCOC(=O)N1C(=O)C2(CCCCC2)N(c2cccc(C)c2)C1=S`: in assay [2], the AC50 was 2.34 µM.
On to `Cc1ccc(N2C(=S)NC(=O)C23CCCC3)cc1`, for which the activity change, negative = inhibition in assay [1] is -25.3% (inactive).
Same read-out and setting: then `Cc1ccc(N2C(=S)N(C(=O)OCc3ccccc3)C(=O)C23CCCCC3)cc1`, with 5.73% (inactive); and `CCOC(=O)N1C(=O)C(C)(C)N(c2ccc(C)cc2)C1=S`, with -7.97% (inactive).
For the compound `Cc1ccc(N2C(=O)NC(=O)C23CCCCC3)cc1`, the AC50 in assay [2] was > 12 µM (inactive).
Still for that read-out and setting: the same measure for `CCOC(=O)N1C(=O)C2(CCCCC2)NC1=S`: > 12 µM (inactive).
